This passage reports IC50 and logD results from ChEMBL document CHEMBL1770124, “Synthesis and in vitro evaluation of [18F]fluoroethyl triazole labelled [Tyr3]octreotate analogues using click chemistry” (Bioorg Med Chem Lett, 2011).

Data set [1] can be described thus: Displacement of [111In]-DTPA-octreotide from somatostatin receptor in rat AR42J cells. The data set is classed as cell-based. As to conditions: ar-42j.
A short description of data set [2]: Partition coefficient, log D of the compound. The format is physicochemical. Conditions: octanol/water.
A short description of data set [3]: Displacement of [125I]-somatostatin-14 from somatostatin receptor in rat AR42J cells. The format is cell-based. As to conditions: ar-42j.

Where a SMILES comes first, the peptide text is derived from it. Bridges are numbered along the chain shown (N, C = ends). [ ]: non-standard residue; d: D form. The star is where a group is joined. Threoninol(2S,3R) = C[C@@H](O)[C@H](CO)N*

One may read the IC50 as the point on the concentration scale where inhibition reaches its midpoint. Read a high IC50 as a need for much substance. Take `C#CC(=O)NCC(=O)N[C@H](Cc1ccccc1)C(=O)N[C@H]1CSSC[C@@H](C(=O)N[C@H](C(=O)O)[C@@H](C)O)NC(=O)[C@H]([C@@H](C)O)NC(=O)[C@H](CCCCN)NC(=O)[C@@H](Cc2c[nH]c3ccccc23)NC(=O)[C@H](Cc2ccc(O)cc2)NC1=O`: in data set [1], the IC50 was determined as 0.0014 µM.
In general, logD refers to lipophilicity at a set pH, counting ionised and neutral species. Turning to `C[C@@H](O)[C@H](NC(=O)[C@@H]1CSSC[C@H](NC(=O)[C@@H](Cc2ccccc2)NC(=O)CCOCCOCCOCCOCCOCCOCCNC(=O)CCc2cn(CC[18F])nn2)C(=O)N[C@@H](Cc2ccc(O)cc2)C(=O)N[C@H](Cc2c[nH]c3ccccc23)C(=O)N[C@@H](CCCCN)C(=O)N[C@@H]([C@@H](C)O)C(=O)N1)C(=O)O`, in data set [1], the IC50 is 0.0132 µM. The molecule further came in with a logD in data set [2] of -2.77.
Turning to `C#CC(=O)NCC(=O)NCCOCCOCCOCCOCCOCCOCCC(=O)N[C@H](Cc1ccccc1)C(=O)N[C@H]1CSSC[C@@H](C(=O)N[C@H](C(=O)O)[C@@H](C)O)NC(=O)[C@H]([C@@H](C)O)NC(=O)[C@H](CCCCN)NC(=O)[C@@H](Cc2c[nH]c3ccccc23)NC(=O)[C@H](Cc2ccc(O)cc2)NC1=O`, in data set [1], the IC50 came out at 0.00523 µM.
In data set [1], `C[C@@H](O)[C@@H]1NC(=O)[C@@H](NC(=O)[C@@H](Cc2cc3ccccc3[nH]2)NC(=O)CNC(=O)CCNC(=O)c2cn(CC[18F])nn2)CSSC[C@@H](C(=O)N[C@@H](CCCCN)C(=O)O)NC(=O)[C@H](Cc2ccc(O)cc2)NC(=O)[C@H]([C@@H](C)O)NC(=O)[C@@H](Cc2ccccc2)NC1=O` registered an IC50 of more than 10000 µM. For the same molecule, the logD in data set [2] is -1.14.
Consider `C[C@@H](O)[C@H](CO)NC(=O)[C@@H]1CSSC[C@H](NC(=O)[C@H](N)Cc2ccccc2)C(=O)N[C@@H](Cc2ccccc2)C(=O)N[C@H](Cc2c[nH]c3ccccc23)C(=O)N[C@@H](CCCCN)C(=O)N[C@@H]([C@@H](C)O)C(=O)N1` (H-[dF]CF[dW]KTC-{Threoninol(2S,3R)}; disulfide 2-7), for which the IC50 in data set [3] came out at 0.0147 µM.
As to `C#CCCC(=O)NCCOCCOCCOCCOCCOCCOCCC(=O)N[C@H](Cc1ccccc1)C(=O)N[C@H]1CSSC[C@@H](C(=O)N[C@H](C(=O)O)[C@@H](C)O)NC(=O)[C@H]([C@@H](C)O)NC(=O)[C@H](CCCCN)NC(=O)[C@@H](Cc2c[nH]c3ccccc23)NC(=O)[C@H](Cc2ccc(O)cc2)NC1=O`, in data set [1], the IC50 worked out at 0.0051 µM.
For the molecule `C[C@@H](O)[C@H](NC(=O)[C@@H]1CSSC[C@H](NC(=O)[C@@H](Cc2ccccc2)NC(=O)CNC(=O)c2cn(CC[18F])nn2)C(=O)N[C@@H](Cc2ccc(O)cc2)C(=O)N[C@H](Cc2c[nH]c3ccccc23)C(=O)N[C@@H](CCCCN)C(=O)N[C@@H]([C@@H](C)O)C(=O)N1)C(=O)O`, in data set [1], the half-maximal inhibitory concentration (IC50) came out at 0.004 µM. In addition, in data set [2], the logD is -1.83.
With `C#CCCC(=O)N[C@H](Cc1ccccc1)C(=O)N[C@H]1CSSC[C@@H](C(=O)N[C@H](C(=O)O)[C@@H](C)O)NC(=O)[C@H]([C@@H](C)O)NC(=O)[C@H](CCCCN)NC(=O)[C@@H](Cc2c[nH]c3ccccc23)NC(=O)[C@H](Cc2ccc(O)cc2)NC1=O`, the IC50 in data set [1] amounted to 0.0018 µM.
Still for that read-out and setting: the value for `C#CC(=O)NCCC(=O)NCC(=O)N[C@H](Cc1ccccc1)C(=O)N[C@H]1CSSC[C@@H](C(=O)N[C@H](C(=O)O)[C@@H](C)O)NC(=O)[C@H]([C@@H](C)O)NC(=O)[C@H](CCCCN)NC(=O)[C@@H](Cc2c[nH]c3ccccc23)NC(=O)[C@H](Cc2ccc(O)cc2)NC1=O` was 0.001 µM.
In the case of `C[C@@H](O)[C@H](NC(=O)[C@@H]1CSSC[C@H](NC(=O)[C@@H](Cc2ccccc2)NC(=O)CCc2cn(CC[18F])nn2)C(=O)N[C@@H](Cc2ccc(O)cc2)C(=O)N[C@H](Cc2c[nH]c3ccccc23)C(=O)N[C@@H](CCCCN)C(=O)N[C@@H]([C@@H](C)O)C(=O)N1)C(=O)O`, in data set [1], the IC50 stood at 0.0029 µM. In data set [2], this molecule displayed a logD of -1.5.
For `C[C@@H](O)[C@H](NC(=O)[C@@H]1CSSC[C@H](NC(=O)[C@@H](Cc2ccccc2)NC(=O)CCOCCOCCOCCOCCOCCOCCNC(=O)CNC(=O)c2cn(CC[18F])nn2)C(=O)N[C@@H](Cc2ccc(O)cc2)C(=O)N[C@H](Cc2c[nH]c3ccccc23)C(=O)N[C@@H](CCCCN)C(=O)N[C@@H]([C@@H](C)O)C(=O)N1)C(=O)O` the same measures were 0.0108 µM and -2.68.
